Patent US10131664B2 (Celgene Quanticel Research, Inc., priority 2013, dated 2018)
Where a name gives a salt, the structure may show the parent alone. Read-outs that look alike come from different tables or passages of the source.

Tests used:
[1] = system: THP-1 (AML) cells; experiment: LSD1 CD11b cellular assay (flow cytometry); type: cell-based; settings: Homo sapiens, read-out: Cellular IC50
Protocol: To analyze LSD1 inhibitor efficacy in cells, a CD11b flow cytometry assay was performed. LSD1 inhibition induces CD11b expression in THP-1 (AML) cells which can be measured by flow cytometry. […] LSD1 test compounds were serially diluted in DMSO. The dilutions were added to each well accordingly to a final concentration of 0.2% DMSO. The cells were incubated at 37° C. in 5% CO2 for 4 days. 250 μL of each well was transferred to a well in a 96 well round bottom plate. The plate was centrifuged at 1200 rpm at 4 degrees Celsius in a Beckman Coulter Alegra 6KR centrifuge for 5 min. The media was removed leaving the cells at the bottom of the wells. The cells were washed in 100 μL cold HBSS (Hank's Balanced Salt Solution) plus 2% BSA (Bovine Serum Albumin) solution and centrifuged at 1200 rpm at 4° C. for 5 min. The wash was removed. […] The cells were centrifuged and washed two times in 100 μl HBSS plus 2% BSA. After the final spin the cells were resuspended in 100 μL HBSS plus 2% BSA containing 1 μg/mL DAPI (4′,6-diamidino-2-phenylindole). The cells were then analyzed by flow cytometry in a BD FACSAria machine. Cells were analyzed for CD11b expression. The percent of CD11b expressing cells for each inhibitor concentration was used to determine an IC50 curve for each compound analyzed.

[2] = biological target: full-length human LSD1 (Homo sapiens (Human), UniProt O60341); experiment: In vitro enzyme inhibition assay LSD-1 (TR-FRET); type: biochemical
Protocol: This assay determines the ability of a test compound to inhibit LSD1 demethylase activity.
The enzymatic assay of LSD1 activity is based on Time Resolved-Fluorescence Resonance Energy Transfer (TR-FRET) detection.
The ability of the compounds disclosed herein to inhibit LSD1 activity was quantified and the respective IC50 value was determined. Table 5 provides the IC50 values of various substituted heterocyclic compounds disclosed herein.

[3] = 96 h, CD11b expression in THP-1 (AML) cells, flow cytometry, 4 days incubation
[4] = TR-FRET, 0.1 nM LSD1, 50 nM H3K4me1-biotin peptide, 2 μM FAD, pH7.3, read-out: LSD1 IC50

SMILES	IC50 [1, 3] [nM]	IC50 [2, 4] [nM]	IC50 [2] [nM]	IC50 ([1]; THP-1, 96 h) [nM]
N#Cc1ccc(-c2cc3c(ccn3C[C@H]3CCNC3)nc2-c2ccc(F)cc2)cc1 [Example 5, 4-[5-(4-fluorophenyl)-1-[[(3S)-pyrrolidin-3-yl]methyl]pyrrolo[3,2-b]pyridin-6-yl]benzonitrile]	1000 to 10000	< 100		
N#Cc1ccc(-c2cc3c(ccn3C[C@@H]3CCNC3)nc2N2CCOCC2)cc1 [Example 6, 4-[5-morpholin-4-yl-1-[[(3R)-pyrrolidin-3-yl]methyl]pyrrolo[3,2-b]pyridin-6-yl]benzonitrile]	1000 to 10000	100 to 1000		
N#Cc1ccc(-c2cc3c(ccn3C[C@H]3CCNC3)nc2N2CCOCC2)cc1 [Example 7, 4-[5-morpholin-4-yl-1-[[(3S)-pyrrolidin-3-yl]methyl]pyrrolo[3,2-b]pyridin-6-yl]benzonitrile]	100 to 1000	< 100		
Cc1ccc(-c2nc3ccn(CC4(F)CCNC4)c3cc2-c2ccc(C#N)cc2)cc1 (stereo not shown) [Example 9, 4-[1-[(3-fluoropyrrolidin-3-yl)methyl]-5-(4-methylphenyl)pyrrolo[3,2-b]pyridin-6-yl]benzonitrile]	100 to 1000		< 100	
Cc1ccc(-c2nc3ccn(C[C@H]4CNCCO4)c3cc2-c2ccc(C#N)cc2)cc1 [Example 10, 4-[5-(4-methylphenyl)-1-[[(2R)-morpholin-2-yl]methyl]pyrrolo[3,2-b]pyridin-6-yl]benzonitrile]	1000 to 10000	< 100		
N#Cc1ccc(-c2cc3c(ccn3C[C@H]3CNCCO3)nc2-c2ccc(F)cc2)cc1 [Example 11, 4-[5-(4-fluorophenyl)-1-[[(2R)-morpholin-2-yl]methyl]pyrrolo[3,2-b]pyridin-6-yl]benzonitrile]	1000 to 10000	< 100		
Cc1ccc(-c2nc3ccn(CCCN)c3cc2-c2ccc(C#N)cc2)cc1 [Example 12]	100 to 1000	< 100		
Cc1ccc(-c2nc3cnn(C[C@H]4[C@@H]5CNC[C@@H]54)c3cc2-c2ccc(C#N)cc2)cc1 [Example 15, 4-[1-[[(1S,5R)-3-azabicyclo[3.1.0]hexan-6-yl]methyl]-5-(4-methylphenyl)pyrazolo[4,3-b]pyridin-6-yl]benzonitrile]	< 100	< 100		
Cc1ccc(-c2cnc(N3C[C@H]4CNC[C@H]4C3)nc2-c2ccc(C#N)cc2)cc1 [Example 21, 4-{2-[(3aR,6aS)-octahydropyrrolo[3,4-c]pyrrol-2-yl]-5-(4-methylphenyl)pyrimidin-4-yl}benzonitrile]	< 100	< 100		
Cc1ccc(-c2cnc(N3CCC4CNCC4C3)nc2-c2ccc(C#N)cc2)cc1 (stereo not shown) [Example 22, 4-[5-(4-methylphenyl)-2-{octahydro-1H-pyrrolo[3,4-c]pyridin-5-yl}pyrimidin-4-yl]benzonitrile]	< 100	< 100		
Cc1ccc(-c2cnc(N3CC[C@@H]4CNC[C@@H]4CC3)nc2-c2ccc(C#N)cc2)cc1 [Example 23, 4-{2-[(3aR,8aS)-decahydropyrro[3,4-d]azepin-6-yl]-5-(4-methylphenyl)pyrimidin-4-yl}benzonitrile]	< 100	< 100		
N#Cc1ccc(-c2nc(NC[C@H]3CCNC3)ncc2C#CC2CC2)cc1 [Example 26, 4-[5-(2-cyclopropylethynyl)-2-{[(3S)-pyrrolidin-3-ylmethyl]amino}pyrimidin-4-yl]benzonitrile]	100 to 1000	< 100		
Cc1ccc(-c2cnc(N[C@@H]3C[C@H]4CNC[C@H]4C3)nc2-c2ccc(C#N)cc2)cc1 [Example 27, 4-(2-{[(3aR,5S,6aS)-octahydrocyclopenta[c]pyrrol-5-yl]amino}-5-(4-methylphenyl)pyrimidin-4-yl)benzonitrile]	100 to 1000	100 to 1000		
COc1ccc(-c2nc3ccn(C[C@@H]4CCNC4)c3cc2-c2ccc(C#N)cc2)cc1 [Example 49, 4-{1-[((3R)pyrrolidin-3-yl)methyl]-5-(4-methoxyphenyl)pyrrolo[3,2-b]pyridin-6-yl}benzenecarbonitrile, HCl salt]	< 100	< 100		
COc1ccc(-c2nc3ccn(C[C@@H]4CCNC4)c3cc2-c2ccc(C#N)cc2)cc1F [Example 50, 4-{1-[((3R)pyrrolidin-3-yl)methyl]-5-(3-fluoro-4-methoxyphenyl)pyrrolo[3,2-b]pyridin-6-yl}benzenecarbonitrile, HCl salt]	< 100	< 100		
COc1ccc(-c2nc3ccn(C[C@H]4CCNC4)c3cc2-c2ccc(C#N)cc2)cc1F [Example 51, 4-{1-[((3S)pyrrolidin-3-y])methyl]-5-(3-fluoro-4-methoxyphenyl)pyrrolo[3,2-b]pyridin-6-yl}benzenecarbonitrile, HCl salt]	< 100	< 100		
COc1ccc(-c2nc3ccn(C[C@@H]4CCNC4)c3cc2-c2ccc(C#N)c(F)c2)cc1 [Example 52, HCl salt]		< 100		< 100
COc1ccc(-c2nc3ccn(C[C@@H]4CCNC4)c3cc2-c2ccc(C#N)c(F)c2)cc1F [Example 53, 4-{1-[((3R)pyrrolidin-3-yl)methyl]-5-(3-fluoro-4-methoxyphenyl)pyrrolo[3,2-b]pyridin-6-yl}-2-fluorobenzenecarbonitrile HCl salt]	< 100	< 100		
COc1ccc(-c2nc3ccn(C[C@H]4CCNC4)c3cc2-c2ccc(C#N)c(F)c2)cc1 [Example 54]	< 100	< 100		
N#Cc1ccc(-n2nc(C(=O)N3CCC[C@@H](N)C3)cc2OCc2cccnc2)cc1 [Example 57, 4-{3-[((3R)-3-Aminopiperidyl)carbonyl]-5-(3-pyridylmethoxy)pyrazolyl}benzenecarbonitrile]	100 to 1000	< 100		

Second part, led by results:

IC50 [1, 3] [nM]	IC50 [2, 4] [nM]	SMILES	IC50 [2] [nM]	IC50 ([1]; THP-1, 96 h) [nM]
< 100	< 100	Cc1ccc(-c2nc3cnn(CC4CCNC4)c3cc2-c2ccc(C#N)cc2)cc1 (stereo not shown) [Example 13]		
< 100	< 100	Cc1ccc(-c2nc3cnn(CC4CCNCC4)c3cc2-c2ccc(C#N)cc2)cc1 [Example 14]		
< 100	< 100	Cc1ccc(-c2cnc(NC[C@H]3CCNC3)nc2-c2ccc(C#N)cc2)cc1 [Example 16, 4-[5-(4-methylphenyl)-2-{[(3S)-pyrrolidin-3-ylmethyl]amino}pyrimidin-4-yl]benzonitrile]		
100 to 1000	< 100	N#Cc1ccc(-c2nc(NC[C@H]3CCNC3)ncc2-c2ccc(F)cc2)cc1 [Example 18, 4-[5-(4-fluorophenyl)-2-{[(3S)-pyrrolidin-3-ylmethyl]amino}pyrimidin-4-yl]benzonitrile]		
100 to 1000	< 100	N#Cc1ccc(-c2nc(NC[C@H]3CCNC3)ncc2-c2ccc(Cl)cc2)cc1 [Example 19, 4-[5-(4-chlorophenyl)-2-{[(3S)-pyrrolidin-3-ylmethyl]amino}pyrimidin-4-yl]benzonitrile]		
100 to 1000	< 100	Cc1ccc(-c2cnc(OC[C@@H]3CCNC3)nc2-c2ccc(C#N)cc2)cc1 [Example 20, 4-[5-(4-methylphenyl)-2-[(3R)-pyrrolidin-3-ylmethoxy]pyrimidin-4-yl]benzonitrile]		
100 to 1000	< 100	N#Cc1ccc(-c2nc(NC[C@H]3CCNC3)ncc2-c2ccc(C(F)(F)F)cc2)cc1 [Example 25, 4-(2-{[(3S)-pyrrolidin-3-ylmethyl]amino}-5-[4-(trifluoromethyl)phenyl]pyrimidin-4-yl)benzonitrile]		
< 100	< 100	Cc1ccc(-c2cc(NCC3CCNC3)nn2-c2ccc(C#N)cc2)cc1 (stereo not shown) [Example 43, 4-[5-(4-methylphenyl)-3-(pyrrolidin-3-ylmethylamino)pyrazol-1-yl]benzonitrile]		
100 to 1000	< 100	Cc1ccc(-c2cc(NC[C@H]3CCNC3)nn2-c2ccc(C#N)cc2)cc1 [Example 44, 4-[5-(4-methylphenyl)-3-[[(3S)-pyrrolidin-3-yl]methylamino]pyrazol-1-yl]benzonitrile]		
100 to 1000	< 100	Cc1ccc(-c2cc(NC[C@@H]3CCNC3)nn2-c2ccc(C#N)cc2)cc1 [Example 45, 4-[5-(4-methylphenyl)-3-[[(3R)-pyrrolidin-3-yl]methylamino]pyrazol-1-yl]benzonitrile]		
100 to 1000	< 100	Cc1ccc(-c2cc(NCC3CCNCC3)nn2-c2ccc(C#N)cc2)cc1 [Example 46, 4-[5-(4-methylphenyl)-3-(piperidin-4-ylmethylamino)pyrazol-1-yl]benzonitrile]		
100 to 1000	< 100	Cc1ccc(-c2cc(NC[C@H]3[C@@H]4CNC[C@@H]43)nn2-c2ccc(C#N)cc2)cc1 [Example 47, 4-[3-[[(1S,5R)-3-azabicyclo[3.1.0]hexan-6-yl]methylamino]-5-(4-methylphenyl)pyrazol-1-yl]benzonitrile]		
